Experimental data published in publication PMC5412286, “Biosynthesis of α-Glucosidase Inhibitors by a Newly Isolated Bacterium, Paenibacillus sp. TKU042 and Its Effect on Reducing Plasma Glucose in a Mouse Model” (International Journal of Molecular Sciences, 2017).
Marks after values point to notes of the source that are not given here.

Assays:
[1] = target: T1, Saccharomyces cerevisiae α-glucosidase (Saccharomyces cerevisiae, UniProt P53341); test: yeast α-glucosidase inhibition assay; type: biochemical; conditions: S. cerevisiae α-glucosidase
T1 construct: purchased Sigma Chemical Co., St. Louis, MO, USA
T1 sequence (P53341 whole entry): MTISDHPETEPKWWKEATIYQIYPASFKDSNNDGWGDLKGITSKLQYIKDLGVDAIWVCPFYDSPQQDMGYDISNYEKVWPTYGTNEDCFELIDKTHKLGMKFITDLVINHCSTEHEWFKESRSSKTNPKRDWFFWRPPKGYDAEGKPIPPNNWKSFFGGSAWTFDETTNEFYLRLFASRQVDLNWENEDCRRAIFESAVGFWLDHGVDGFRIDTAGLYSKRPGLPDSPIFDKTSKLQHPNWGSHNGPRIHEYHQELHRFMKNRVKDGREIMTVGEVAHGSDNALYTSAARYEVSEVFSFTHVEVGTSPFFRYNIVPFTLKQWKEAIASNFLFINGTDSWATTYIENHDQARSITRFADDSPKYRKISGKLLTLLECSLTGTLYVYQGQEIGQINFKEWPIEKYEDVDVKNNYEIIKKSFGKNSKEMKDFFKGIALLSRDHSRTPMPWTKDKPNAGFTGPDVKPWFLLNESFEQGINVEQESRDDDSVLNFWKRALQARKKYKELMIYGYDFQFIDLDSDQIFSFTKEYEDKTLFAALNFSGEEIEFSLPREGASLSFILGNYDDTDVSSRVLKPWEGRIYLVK
Experimental: SPP, SHP (shrimp head powder), and NB were used as the sole sources of C/N with concentrations of 1%, 1% and 0.8%, respectively. Fermentation conditions were set at 30 °C, shaking speed of 150 rpm, 100/250 mL for the medium/flask volume ratio, and 1 mL of bacterial seed solution (OD660nm = 0.38). The inhibition against yeast α-glucosidase was then tested and calculated in % (A) or U/mL (B); the growth of Paenibacillus sp. TKU042 was detected at OD660nm (C). […] Saccharomyces cerevisiae α-glucosidase was used to test aGI activity.
All of the isolated strains were incubated in a 250-mL Erlenmeyer flask with 50 mL of the same medium, but without agar. Fermentation was performed at 37 °C and a 150 rpm shaking speed. After 1–4 days of fermentation, the culture was centrifuged at 500 rpm for 10 min to remove the medium residue. The solution was then centrifuged again at 4000 rpm for 20 min to separate the cells from the culture supernatant. The supernatant was then used to test yeast α-glucosidase inhibitory activity. […] The screening of active bacteria was based on the inhibitory activity of the supernatant.
Three sources of C/N (1% SPP, 1% SHP, and 0.8% NB) were used to cultivate Paenibacillus sp. TKU042; conditions were set at 30 °C, a shaking speed of 150 rpm and a 100/250 mL medium/flask volume ratio for nine days. […]

Rat α-glucosidase = test: rat intestinal α-glucosidase inhibition assay; type: biochemical
Experimental: To determine rat intestinal α-glucosidase inhibition, the techniques from the previous report were followed, with modifications. One hundred mg of rat-intestinal acetone powder was suspended in 4 mL of 0.1 mol/L potassium phosphate buffer (NPB), pH 7. The suspension was sonicated several times for 12 s at 4 °C and then centrifuged for 20 min at 10,000× g. The residues were twice suspended with 3 mL of 0.1 mol/L NPB at pH 7, as described above. The resulting supernatant was mixed together and dialyzed for 12 h at 4–6 °C, and then used for the assay. The α-glucosidase, sample solutions and buffer were pre-mixed at volumes of 50, 50 and 100 μL, respectively. After pre-incubation at 37 °C for 20 min, the reaction started when 50 μL of p-nitrophenyl glucopyranoside (10 mmol/L) was added to the mixture. After 20 min at 37 °C, 100 μL Na2CO3 solution (1 mol/L) was added to terminate the reaction. The absorbance of the final mixture was measured at 410 nm and used to calculate inhibition (%) using the following equation: α-glucosidase inhibitory activity (%) = (A − B)/A × 100 where “A” is the absorbance of the control (buffer was used instead of sample with the same volume) and “B” is the absorbance of the final mixture containing the sample and α-glucosidase. The IC50 value was defined and determined as per the previous study. […]

ICR mice = test: diarrhea / ill effects in the sucrose tolerance test; conditions: FNB 100, 200 or 400 mg, acarbose 12.5 mg, FNB (100, 200 mg) with acarbose 12.5 mg
Experimental: A sucrose solution was orally administered at 3 g/kg bw and blood was sampled and measured after 0.5, 1, 1.5 and 2 h.

[2] = DPPH radical scavenging activity assay
Experimental: One hundred and twenty microliters of each sample (at different concentrations) was mixed with 30 µL of a methanolic solution containing 0.75 mM DPPH radicals in the well of a plate with 96 wells. The mixture was kept in the dark for 30 min before absorbance at 517 nm was measured. Radical scavenging activity was calculated using the following formula: Antioxidant activity (%) = [(AB − AA)/AB] × 100 where AB and AA stand for absorption of the blank sample (t = 0 min) and absorption of the tested sample solution (t = 30 min), respectively. α-Tocopherol dissolved in MeOH was also analyzed as a control.

| antioxidant activity IC50 (DPPH radical scavenging) ([2]; DPPH, 30 min, 517 nm) [µg/mL] | Compound | Maximum Inhibitory Activity [1] [%] | IC50 (Rat α-glucosidase) | Maximum Inhibitory Activity (Rat α-glucosidase) [%] | ill effects (diarrhea), in words (ICR mice) | antioxidant activity achieved (DPPH) ([2]; maximum activity) |
| --- | --- | --- | --- | --- | --- | --- |
| – | C[C@H]1O[C@H](O[C@H]2[C@H](O)[C@@H](O)[C@@H](O[C@H]3[C@H](O)[C@@H](O)C(O)O[C@@H]3CO)O[C@@H]2CO)[C@H](O)[C@@H](O)[C@@H]1N[C@H]1C=C(CO)[C@@H](O)[C@H](O)[C@H]1O (stereo partly drawn) [acarbose] | 63 ± 2.5 | 107 ± 2.5 ^c µg/mL | 89 ± 2.4 | No ill effects | – |
| 24.7 ± 1.2 | Cc1c(C)c2c(c(C)c1O)CC[C@@](C)(CCC[C@H](C)CCC[C@H](C)CCCC(C)C)O2 [α-Tocopherol] | – | – | – | – | approximately 100% |
